Source: patent US12344620B2, “BRD4 inhibitor compound in solid form and preparation method therefor and use thereof” (CSPC ZHONGQI PHARMACEUTICAL TECHNOLOGY (SHIJIAZHUANG) CO., …, priority 2019, dated 2025)

Legend:
[1] = Hygroscopicity study by dynamic vapor sorption (DVS); type: physicochemical; conditions: 25° C. and 80% RH
Protocol: • Instrument model: SMS DVS advantage dynamic vapor sorption analyzer • Testing conditions: the sample (10-20 mg) was placed in DVS sample trays for testing. Detailed DVS Parameters: • Temperature: 25° C. • Balancing: dm/dt=0.01%/min (shortest: 10 min, longest: 180 min) • Drying: drying for 120 min at 0% RH • RH (%) testing step: 10% • RH (%) testing step range: 0%-90%-0%
The evaluation of hygroscopicity was classified as follows:
• 10-15 mg of the crystalline form A of the compound of formula (I) was placed on a DVS sample tray for testing.

[2] = Solid stability test of the crystalline form A; type: physicochemical

Q: Which Moisture absorption classification [1] does the source give for Cc1sc2c(c1C)C(c1ccc(Cl)cc1)=N[C@@H](CC(=O)Nc1ccc3c(c1)COC3=O)c1nnc(C)n1-2 here?
A: slightly hygroscopic

Q: And the “ΔW, increase in weight by moisture sorption” value [1]?
A: 1.789%

Q: What about the Appearance ([2]; 0 day (initial)) of the same compound?
A: White

Q: And the Content ([2]; 0 day (initial))?
A: 98.7%

Q: And the “Crystalline form (XRPD)” value ([2]; 0 day (initial))?
A: form A

Q: What about the Total impurity ([2]; 0 day (initial)) of the same compound?
A: 0.17%

Q: And the Appearance ([2]; 25° C./60% RH, sealed, 90 days)?
A: White

Q: What about the Content ([2]; 25° C./60% RH, sealed, 90 days) of the same compound?
A: 99.4%

Q: And the “Crystalline form (XRPD)” value ([2]; 25° C./60% RH, sealed, 90 days)?
A: form A

Q: And the Total impurity ([2]; 25° C./60% RH, sealed, 90 days)?
A: 0.12%

Q: What about the Appearance ([2]; 40° C./75% RH, sealed, 90 days) of the same compound?
A: White

Q: What about the Content ([2]; 40° C./75% RH, sealed, 90 days) of the same compound?
A: 99.2%

Q: And the “Crystalline form (XRPD)” value ([2]; 40° C./75% RH, sealed, 90 days)?
A: form A

Q: What about the Total impurity ([2]; 40° C./75% RH, sealed, 90 days) of the same compound?
A: 0.19%

Q: What about the “Solid stability (conclusion)” value ([2]; accelerated and prolonged conditions, 90 days) of the same compound?
A: good stability
